Laboratory results from ChEMBL document CHEMBL1124812, “Vinblastine and vincristine are inhibitors of monoamine oxidase B” (J Med Chem, 1990).

Target: T1, Amine oxidase [flavin-containing] B (Bos taurus, UniProt P56560)
T1 sequence (P56560 whole entry): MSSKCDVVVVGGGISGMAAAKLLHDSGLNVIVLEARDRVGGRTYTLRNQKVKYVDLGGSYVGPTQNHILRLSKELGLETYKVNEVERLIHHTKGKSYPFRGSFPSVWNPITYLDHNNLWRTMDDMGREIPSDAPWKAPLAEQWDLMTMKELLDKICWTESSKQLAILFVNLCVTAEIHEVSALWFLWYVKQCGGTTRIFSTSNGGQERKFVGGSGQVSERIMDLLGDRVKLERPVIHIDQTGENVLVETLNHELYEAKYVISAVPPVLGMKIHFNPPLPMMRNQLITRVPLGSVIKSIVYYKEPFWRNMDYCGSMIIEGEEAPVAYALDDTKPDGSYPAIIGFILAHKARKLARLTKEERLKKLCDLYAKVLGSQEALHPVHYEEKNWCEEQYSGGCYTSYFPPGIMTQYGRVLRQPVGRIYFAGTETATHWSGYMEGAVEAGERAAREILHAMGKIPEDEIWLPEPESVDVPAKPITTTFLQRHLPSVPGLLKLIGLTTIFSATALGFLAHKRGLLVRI
Assay: Inhibitory activity against Monoamine oxidase B isolated from beef liver mitochondria was determined

For `CC[C@]1(O)C[C@@H]2CN(CCc3c([nH]c4ccccc34)[C@@](C(=O)OC)(c3cc4c(cc3OC)N(C)[C@H]3[C@@](O)(C(=O)OC)[C@H](OC(C)=O)[C@]5(CC)C=CCN6CC[C@]43[C@@H]65)C2)C1` [VINBLASTINE], the Ki was 77 µM.
